In US20250197384A1, “AZOLE COMPOUND AND ANTIFUNGAL AGENT” (NIHON NOHYAKU CO., LTD., priority 2022, published 2025):

Assays:
[1] = system: Aspergillus fumigatus TIMM0063; experiment: In vitro anti-Aspergillus activity test; type: cell-based; settings: 80% or more inhibition, unit inferred
Description: Aspergillus fumigatus TIMM0063 was used as the strain. The test fungi were cultured on a Potato dextrose agar slant medium at 35° C. for 4 days, and then sterilized saline containing 0.1% (v/v) Tween 80 was added to release the conidia. This conidial suspension was filtered through sterile gauze, and the number of conidia was counted using a hemocytometer. The same solution was adjusted to a conidial concentration of 1×10^6 conidia/mL, and this was used as an inoculum. Each compound was dissolved in dimethyl sulfoxide to a predetermined concentration, and diluted 50-fold with 0.165 M MOPS buffered RPMI 1640 liquid medium, and each diluted solution was dispensed into a 96-well microplate by each 100 μL. The inoculum was diluted 50-fold with 0.165 M MOPS buffered RPMI 1640 liquid medium containing 20% alamar Blue™, and the diluted solution was inoculated into the 96-well microplate containing the compound by each 100 μL (final inoculum amount 1.0×10^4 conidia/mL). After static culture at 35° C. for 48 hr, the degree of color development of the alamar Blue™ was measured using a microplate reader (O.D. 570-595 nm), and the minimum concentration showing 80% or more inhibition was defined as the minimum inhibitory concentration (MIC).

[2] = system: Candida albicans NBRC1270; experiment: In vitro anti-Candida activity test; type: cell-based; settings: 80% or more inhibition, unit inferred
Description: Candida albicans NBRC1270 was used as the strain. The test fungi were cultured on a Sabouraud dextrose agar slant medium at 35° C. for 24 hr, and then suspended in sterilized saline. The number of cells in this suspension was counted using a hemocytometer, and the same suspension was adjusted to a cell concentration of 1.5×10^5 cells/mL, and this was used as an inoculum. Each compound was dissolved in dimethyl sulfoxide to a predetermined concentration, and diluted 50-fold with 0.165 M MOPS buffered RPMI 1640 liquid medium, and each diluted solution was dispensed into a 96-well microplate by each 100 μL. The inoculum was diluted 50-fold with 0.165 M MOPS buffered RPMI 1640 liquid medium containing 20% alamar Blue™, and the diluted solution was inoculated into the 96-well microplate containing the compound by each 100 μL (final inoculum amount 1.5×10^3 cells/mL). After static culture at 35° C. for 24 hr, the degree of color development of the alamar Blue™ was measured using a microplate reader (O.D. 570-595 nm), and the minimum concentration showing 80% or more inhibition was defined as the minimum inhibitory concentration (MIC).

Row | A. fumigatus (MIC) ([1]; Table 23, 35° C. for 48 hr) | C. albicans (MIC) ([2]; Table 23, 35° C. for 24 hr) | A. fumigatus (MIC) ([1]; Table 24, 35° C. for 48 hr) | C. albicans (MIC) ([2]; Table 24, 35° C. for 24 hr) | Structure (SMILES)
1 | 10 ng/mL | 10 ng/mL | – | – | N#C/C(=C1/SCC(c2ncc(NC(=O)OCc3ncc(F)cc3F)cc2Cl)S1)n1cncn1 (racemic) [compound 75]
2 | 10 ng/mL | 5 ng/mL | – | – | CC(C)COC(=O)Nc1cnc(C2CS/C(=C(/C#N)n3cncn3)S2)c(Cl)c1 (racemic) [compound 83]
3 | 5 ng/mL | 5 ng/mL | – | – | CCCOC(=O)Nc1cnc(C2CS/C(=C(/C#N)n3cncn3)S2)c(Cl)c1 (racemic) [compound 84]
4 | 5 ng/mL | 1.25 ng/mL | – | – | N#C/C(=C1/SCC(c2ncc(NC(=O)OCC3CC3)cc2Cl)S1)n1cncn1 (racemic) [compound 87]
5 | 10 ng/mL | 2.5 ng/mL | – | – | N#C/C(=C1/SCC(c2ncc(NC(=O)OCc3ccc(F)cc3)cc2Cl)S1)n1cncn1 (racemic) [compound 89]
6 | 10 ng/mL | 5 ng/mL | – | – | N#C/C(=C1/SCC(c2ncc(NC(=O)OCC3CC3(F)F)cc2Cl)S1)n1cncn1 (racemic) [compound 96]
7 | 10 ng/mL | 2.5 ng/mL | – | – | N#C/C(=C1/SCC(c2ncc(NC(=O)OCC3CCC3)cc2Cl)S1)n1cncn1 (racemic) [compound 97]
8 | 5 ng/mL | 2.5 ng/mL | – | – | N#C/C(=C1/SCC(c2ncc(NC(=O)OCc3cccc(F)c3)cc2Cl)S1)n1cncn1 (racemic) [compound 98]
9 | 5 ng/mL | 2.5 ng/mL | – | – | N#C/C(=C1/SCC(c2ncc(NC(=O)OCc3ccccc3F)cc2Cl)S1)n1cncn1 (racemic) [compound 99]
10 | 10 ng/mL | 5 ng/mL | – | – | N#C/C(=C1/SCC(c2ncc(NC(=O)OCC3CC3)cc2F)S1)n1cncn1 (racemic) [compound 103]
11 | 10 ng/mL | 5 ng/mL | – | – | N#C/C(=C1/SCC(c2ncc(NC(=O)OCC3CC(F)(F)C3)cc2Cl)S1)n1cncn1 (racemic) [compound 107]
12 | – | – | 10 ng/mL | 10 ng/mL | N#C/C(=C1/SCC(c2ncc(NC(=O)OCc3ccncc3F)cc2Cl)S1)n1cncn1 (racemic) [compound 114]
13 | – | – | 10 ng/mL | 5 ng/mL | N#C/C(=C1/SCC(c2ncc(NC(=O)OCc3ccnc(F)c3)cc2Cl)S1)n1cncn1 (racemic) [compound 115]
14 | – | – | 5 ng/mL | 1.25 ng/mL | CC1CC1COC(=O)Nc1cnc(C2CS/C(=C(/C#N)n3cncn3)S2)c(Cl)c1 (racemic) [compound 118]
15 | – | – | 10 ng/mL | 10 ng/mL | N#C/C(=C1/SCC(c2ncc(NC(=O)OCC3CC3(F)F)cc2F)S1)n1cncn1 (racemic) [compound 128]
16 | – | – | 2.5 ng/mL | 1.25 ng/mL | N#CC(=C1SCC(c2ncc(C=NOCC3CC3)cc2Cl)S1)n1cncn1 (racemic) [compound 139]
17 | – | – | 2.5 ng/mL | 2.5 ng/mL | N#CC(=C1SCC(c2ncc(C=NOCC3CC3)cc2F)S1)n1cncn1 (racemic) [compound 140]
18 | – | – | 2.5 ng/mL | 2.5 ng/mL | CCCON=Cc1cnc(C2CSC(=C(C#N)n3cncn3)S2)c(Cl)c1 (racemic) [compound 141]
19 | – | – | 10 ng/mL | 2.5 ng/mL | CC(C)ON=Cc1cnc(C2CSC(=C(C#N)n3cncn3)S2)c(Cl)c1 (racemic) [compound 142]
